Test results published in patent US20130310421A1, “TREATMENT OF AMYLOID BETA AMYLOIDOSIS” (Temple University - Of The Commonwealth System of Higher …, priority 2012, published 2013).
Entries after “also recorded” stand apart in the source; their conditions may differ.

What was measured:
[1] = test system: γ-secretase-mediated cleavage of Notch; assay: γ-secretase-mediated cleavage of Notch (NICD western blot) in transfected N2A-APPswe cells; assay type: cell-based; conditions: N2A-APPswe cells transfected with Myc-tagged mAE-Notch-1, 24-hour incubation vs vehicle
Procedure: For transfection studies, N2A-APPswe cells were transfected with 1 μg Myc-tagged mAE-Notch-1 complementary DNA overnight (a generous gift from Dr. L. D'Adamio, Albert Einstein Medical College, NY) by using Lipofectamine 2000 (Invitrogen). The media were removed and fresh media containing MK-591, L685, 458 or vehicle was added. After a 24-hour incubation, cell lysates were collected and Notch intracellular domain (NICD) expression levels assayed by western blot analysis.

[2] = test system: Tg2576 mice; assay: General health and blood parameters of Tg2576 mice on chronic MK-591 diet; assay type: in vivo, mouse
Procedure: The Tg2576 transgenic mice expressing human APP with the Swedish mutation (K670N/M671L) used in these studies were previously described (Pratico D et al. J Neurosci 2001, 21(12):4183-4187). The mice were genotyped by polymerase chain reaction (PCR) analysis using tail DNA and kept in a pathogen-free environment, one 12-hour light/dark cycle and had access to food and water ad libitum. All the experiments presented herein were performed with female mice. Starting at 7 months of age, mice were randomized to receive MK-591 (40 mg/kg weight) (n=11) or vehicle (n=9) in their chow diet for 8 months until they were 15 months old. Considering that each mouse eats on average 5 g/day of chow diet and the diet is formulated for 320 mg MK-591 pwer kg diet (Harlan Teklad, Wis., USA), the final dose of the active drug was approximately 40 mg/kg weight/day.
Starting at seven months of age Tg2576 mice were randomized to receive MK-591 (320 mg/kg diet) or vehicle in their chow diet for 8 months before being sacrificed. Considering that each mouse eats on average 5 g/day of chow diet, the final dose of the active drug was approximately 40 mg/kg weight/day. By the end of the study, body weight, total plasma cholesterol, triglycerides and blood cell counts were not different between the two groups (not shown).

[3] = test system: 3xTg mice; assay: Electrophysiology of hippocampal slices (fEPSP, PPF, LTP) of 3xTg mice; assay type: in vivo, mouse; conditions: 3xTg-MK-591 mice, mean +/- SEM
Procedure: The 3xTg mice harboring a mutant amyloid precursor protein (APP; KM670/671NL), a human mutant PS1 (M146V) knockin, and tau (P301L) transgenes, wild type mice (WT), and mice genetically deficient for FLAPKO (FLAPKO) used in this study were reported previously (Oddo S et al. Neuron 2003, 39:409-421; Byrum R S et al. J Exp Med 1997, 185:1065-1075). All the animals were backcrossed 10 times on the same genetic background C57BL6/SJL. The FLAPKO mice were crossbred several times with 3xTg mice to obtain founder animals (3xTg/FLAPKO), which were then crossed with each other. The animals from these crosses were used for the studies. […]
Six month old mice (n=# slices/# animals): WT (n=23/8); 3xTg (n=21/7); 3xTg-FLAPKO (n=21/6); 3xTg plus MK-591 (n=10/3) were sacrificed by rapid decapitation and brains were put into ice-cold artificial cerebral spinal fluid (CSF) in which sucrose (248 mM) was substituted for NaCl. […] We recorded field excitatory postsynaptic potentials (fEPSPs) from the CAl stratum radiatum by using an extracellular glass pipette ([…]) filled with ACSF. […] Baseline was recorded for 20 mins prior to tetanization with pulses every 30 seconds. […] The fEPSP rise/slope (mV/ms) between 30 and 90% was measured offline using Clampfit 10.3 (Molecular Devices, LLC) and normalized to the mean rise/slope of the baseline. […]

[4] = MK-591 approximately 40 mg/kg weight/day for 8 months vs vehicle, end of study
[5] = MK-591 approximately 40 mg/kg weight/day in chow for 8 months

SMILES | Notch intracellular domain (NICD) levels [1] | blood cell counts [2, 4] | total plasma cholesterol [2, 4] | triglycerides [2, 4] | overall general health [2, 5] | post-mortem macroscopic pathology of organs (spleen, liver, thymus, ileum) [2, 5] | body weight ([2]; MK-591 approximately 40 mg/kg weight/day in chow for 8 months vs vehicle) | LTP magnitude as percentage of baseline, 0-10 minutes post-tetanus ([3]; n=10 slices, 3xTg 159.9%, WT 274.6%) [%+/−13.2%] | LTP magnitude as percentage of baseline, 170-180 minutes post-tetanus ([3]; 3xTg 121.0%, WT 202.6%) [%+/−9.4%]
CC(C)C[C@H](NC(=O)[C@H](Cc1ccccc1)C[C@@H](O)[C@H](Cc1ccccc1)NC(=O)OC(C)(C)C)C(=O)N[C@@H](Cc1ccccc1)C(N)=O [L685,458] | significant reduction | – | – | – | – | – | – | – | –
CC(C)(C)Sc1c(CC(C)(C)C(=O)O)n(Cc2ccc(Cl)cc2)c2ccc(OCc3ccc4ccccc4n3)cc12 [MK-591, 3-[3-tert-butylsulfanyl-1-[(4-chlorophenyl)methyl]-5-(quinolin-2-ylmethoxy)indol-2-yl]-2,2,-dimethylpropanoic acid] | – | not different | not different | not different | No macroscopic effect | no sign of macroscopic pathology | no significant difference; also recorded: not different | 272.5 | 202.5
